The source made the active and inactive calls. The calls are words filed in the database; no cut-off is given here.
What was measured:
PC-3 [1] = assay: Antiproliferative activity against human PC3 cells assessed as cell viability at 100 uM after 72 hrs by WST-1 assay; type: functional, cell-based
PC-3 [2] = assay: Antiproliferative activity against human PC3 cells assessed as reduction of cell viability after 72 hrs by WST-1 assay relative to control; type: functional; set-up: concentration or dose not given beside the values
PC-3 [3] = assay: Antiproliferative activity against human PC3 cells assessed as reduction of cell viability at 400 uM after 72 hrs by WST-1 assay; type: functional, cell-based
HL-60 [4] = assay: Antiproliferative activity against human HL60 cells by WST-1 assay; type: functional, cell-based; settings: TDE = time-dependent effect
HL-60 [5] = assay: Antiproliferative activity against human HL60 cells at 400 uM by WST-1 assay; type: functional, cell-based

Structure (SMILES)	Activity (PC-3 [1])	Activity (PC-3 [2])	Activity (PC-3 [3])	Activity (HL-60 [4])	Activity (HL-60 [5])
CC(C)=CCC/C(C)=C/COP(=O)(O)OCC(COC=O)OC=O (configuration not stated)	Active				
CC(C)=CCC/C(C)=C\COP(=O)(O)OCC(COC=O)OC=O (configuration not stated)	Active				
CC(C)=CCC/C(C)=C/CO [GERANIOL]		10%	inactive	tde	inactive
CC1(C)C2CC=C(CO)C1C2 (configuration not stated) [MYRTENOL]		10%	inactive	tde	inactive
CC(C)=CCC/C(C)=C\CO [NEROL]		10%	inactive	tde	inactive
C=C(C)[C@@H]1CC=C(CO)CC1 [PERILLYL ALCOHOL]		10%	inactive	tde	inactive
CC1(C)C2CC=C(COP(=O)(O)OCC(COC=O)OC=O)C1C2 (configuration not stated) [PHOSPHATIDYL MYRTENOL]	Active	10%			
C=C(C)C1CC=C(COP(=O)(O)OCC(COC=O)OC=O)CC1 (configuration not stated) [PHOSPHATIDYL PERILLYL ALCOHOL]	Active	10%			

Source: ChEMBL document CHEMBL1155002, “Synthesis of phosphatidylated-monoterpene alcohols catalyzed by phospholipase D and their antiproliferative effects on human cancer cells” (2008)
